According to patent publication US11266616B2, “Compositions and methods for inhibiting kinase activity” (BRANDEIS UNIVERSITY, priority 2016, dated 2022):
pKd: −log10 of the molar value. “Also recorded” adds a separate entry of the source. Where two headings read alike, the source gives them in different places.

Experiments:
[1] = target: T1, dephosphorylated Aurora A kinase (Homo sapiens, UniProt O14965); assay: Isothermal titration calorimetry (ITC) binding to dephosphorylated Aurora A kinase
T1 construct: Codon-optimized Aurora A^122-403 in pET28a and untagged λPP in T7-7 plasmid were co-transformed in BL21(DE3) cells; inferred from pET28a and the NiNTA column) (cleaved yes); made in house; host or cells: E. coli BL21(DE3), co-expressed with lambda protein phosphatase
T1 sequence (O14965 122-403): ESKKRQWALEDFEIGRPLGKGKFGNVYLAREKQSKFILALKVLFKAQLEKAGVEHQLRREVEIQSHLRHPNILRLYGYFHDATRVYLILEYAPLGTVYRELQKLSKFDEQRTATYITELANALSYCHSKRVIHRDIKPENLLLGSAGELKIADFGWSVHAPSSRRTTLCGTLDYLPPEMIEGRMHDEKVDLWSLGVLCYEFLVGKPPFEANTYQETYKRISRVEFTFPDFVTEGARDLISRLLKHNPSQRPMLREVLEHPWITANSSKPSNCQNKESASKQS
Method: Titrations were carried out using Nano ITC isothermal titration calorimeter (TA Instruments) and analyzed via the NanoAnalyze software using the independent fit model. Injectant was added in 1 μl volume, every 180 s, with a constant stirring speed at 350 rpm and at 25° C. Prior to ITC titration, both protein and TPX2 or monobody were dialyzed/resuspended in ITC buffer (20 mM TrisHCl, 200 mM NaCl, 3% (vol/vol) glycerol, 1 mM TCEP, pH 7.50).

[2] = target: T2, ATP-binding site of Aurora A kinase (Homo sapiens, UniProt O14965); assay: TNP-ATP fluorescence titration of dephosphorylated Aurora A kinase with or without PS48; settings: FIGS. 24-26
T2 construct: Codon-optimized Aurora A^122-403 in pET28a and untagged λPP in T7-7 plasmid were co-transformed in BL21(DE3) cells; inferred from pET28a and the NiNTA column) (cleaved yes); made in house; host or cells: E. coli BL21(DE3), co-expressed with lambda protein phosphatase
T2 sequence (O14965 122-403): T1 sequence (O14965 122-403)
Method: TNP-ATP is excited at a wavelength of 479 nm and fluoresces at 500-600 nm. FIG. 26B is a plot showing an emission spectrum of TNP-ATP. FIG. 26C is a plot showing fluorescence spectroscopy of dephosphorylated Aurora A kinase incubated with varying amounts of TNP-ATP. FIG. 26D is a plot showing fluorescence spectroscopy of dephosphorylated Aurora A kinase and PS48 incubated with varying amounts of TNP-ATP. FIG. 26E is a plot showing fluorescence intensities measured during titration of TNP-ATP in the Aurora A kinase and PS48 sample and Aurora A kinase only sample. The dissociation constant of TNP-ATP binding to Aurora A kinase in the absence and presence of PS48 is shown at the bottom of FIG. 26E.

[3] = target: T3, TPX2 binding site of Aurora A kinase (Homo sapiens, UniProt O14965); assay: NMR titration (1H-15N HSQC) of TPX2, Aurora A and PS48; settings: FIGS. 27A-27C
T3 construct: Codon-optimized Aurora A^122-403 in pET28a and untagged λPP in T7-7 plasmid were co-transformed in BL21(DE3) cells; inferred from pET28a and the NiNTA column) (cleaved yes); made in house; host or cells: E. coli BL21(DE3) (Aurora A); TPX2 not described
T3 sequence (O14965 122-403): T1 sequence (O14965 122-403)
Method: FIGS. 27A-27C is a set of plots showing results of NMR titration showing that PS48 binds to the TPX2 binding site of Aurora A kinase. FIG. 27A is a plot showing ^1H-^15N heteronuclear single quantum coherence (HSQC) spectra of selected titration points (250 μM TPX2, 250 μM TPX2+100 μM Aurora A, and 250 μM TPX2+100 μM Aurora A+1.5 mM PS48). A magnified view showing separation of peaks is indicated by an arrow. FIG. 27B is a plot showing changes in chemical shift (Δδ) at 200 μM TPX2 and varying concentrations of Aurora A. FIG. 27C is a plot showing changes in chemical shift (Δδ) at 200 μM TPX2 and 100 μM Aurora A and varying concentrations of PS48.

HeLa cells [4] = assay: Cell imaging of synchronized HeLa cells treated with PS48 (Aurora A localization, mitotic progression); assay type: cell-based, human
Text: FIG. 30 is a schematic showing a summary of a protocol used for cell synchronization experiments described herein to visualize effects of PS48 on TPX2 and Aurora A interaction in vivo.
The physiological importance of the Aurora A-TPX2 interaction was then investigated through experiments using PS48 to disrupt the Aurora A-TPX2 interaction in vivo. As described herein, during the transition to mitosis, Aurora A kinase is known to localize to the centrosomes and the spindle, with levels and activity of Aurora A kinase peaking during this point. TPX2 activates Aurora A kinase and targets Aurora A kinase to the spindle during mitosis. Thus, to observe effects of disruption of the Aurora A-TPX2 interaction on the biological in vivo activities of Aurora A kinase, cells in the experiment needed to be synchronized. The live cell imaging experiments to monitor Aurora A kinase and TPX2 in vivo interaction herein were performed using HeLa cells; however, HEK293 cells may also be used (FIGS. 33-35).
To monitor mitotic progression over time with fine resolution, in addition to staining DNA, phosphorylated histone H3 (“H3_P”) was also stained to monitor levels of H3_P in cells during live cell imaging (FIG. 31). Phosphorylation of Ser10 of histone H3 is considered to be a temporal marker of mitotic progression. […]

HeLa cells [5] = assay: HeLa cell viability with PS48; assay type: cell-based, human; settings: FIG. 39
[6] = Stability of PS48 at very high concentrations; assay type: physicochemical

O=C(O)/C=C(/CCc1ccc(Cl)cc1)c1ccccc1 [PS48]
pKd ([1]; Aurora A saturated with danusertib, FIGS. 3C-3D, read-out: Kd of PS48 binding to dephosphorylated Aurora A kinase): ~4.07
pKd ([1]; ITC, FIG. 3B, read-out: Kd of binding of PS48 to Aurora A kinase): ~4.34
effect of PS48 on the ATP binding site of Aurora A kinase (TNP-ATP binding) [2]: does not affect binding of TNP-ATP; also recorded: does not bind to the ATP binding site
binding site of PS48 on Aurora A kinase [3]: bound to the TPX2 binding site of Aurora A kinase
localization of Aurora A to the spindle during mitosis (HeLa cells [4]; HeLa cells treated with PS48, FIGS. 36-37): not observed at the spindles
progression of HeLa cells through mitosis (HeLa cells [4]; presence of PS48 vs DMSO, FIG. 38): prolonged
HeLa cell viability (HeLa cells [5]): PS48-dose dependent; also recorded: decreased cell viability
stability of PS48 [6]: not stable
